According to PMC10825075, “Proteomic analysis of horse hair extracts provides no evidence for the existence of a hypoallergenic Curly Horse breed” (Clinical and Translational Allergy, 2024):

Key:
Equ c 1.0102 [1] = molecular target: T1, Equ c 1.0102 (Equus caballus, UniProt A0A3Q2HX90); assay: fluorescent probe binding (excitation […] nm, emission […] nm)
T1 construct: mature protein, residues 16-187 (signal peptide removed), C-terminal His6 tag, codon-optimized synthetic cDNA in pET-21d(+), E. coli Rosetta-gami 2(DE3), purified by HisTrap
T1 sequence (A0A3Q2HX90 16-187): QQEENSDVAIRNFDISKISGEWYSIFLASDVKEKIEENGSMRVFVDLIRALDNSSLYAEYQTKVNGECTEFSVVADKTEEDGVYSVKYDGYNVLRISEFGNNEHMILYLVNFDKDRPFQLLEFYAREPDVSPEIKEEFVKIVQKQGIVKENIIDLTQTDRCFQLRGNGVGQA

Equ c 1.0102 [2] = molecular target: T1, Equ c 1.0102; assay: as above; conditions: read-out: dissociation constant
Equ c 1.0102 [3] = molecular target: T1, Equ c 1.0102; assay: competitive displacement of fluorescent probe 1-NPN, 12-point titration, one-site fit; type: binding

| Compound | EC50 (Equ c 1.0102 [1]) [µM] | Kd (Equ c 1.0102 [2]) [µM] | Ki (Equ c 1.0102 [3]) [µM] |
| --- | --- | --- | --- |
| c1ccc(Nc2cccc3ccccc23)cc1 [1-NPN] | 5 | 6.4 |  |
| CC(C)CCCC(C)CCO (stereo not shown) [3,7-dimethyl-1-octanol] |  |  | 0.6 |
| CCCCCCCCCCO [1-decanol] |  |  | 1.1 |
